Assays:
[1] = molecular target: T1, p38 MAPKα isoform (MAPK14) (Homo sapiens (Human), UniProt Q16539); experiment: p38 MAPKα enzyme inhibition (FRET, Z-LYTE), Method 1; assay type: biochemical; conditions: Method 1 (Table 4a1)
[2] = molecular target: T1, p38 MAPKα isoform (MAPK14); experiment: p38 MAPKα enzyme inhibition (FRET, Z-LYTE), Method 2; assay type: biochemical; conditions: Method 2, different laboratory (Table 4a2)
Experimental: The enzyme inhibitory activities of compounds disclosed herein are determined by FRET using synthetic peptides labelled with both donor and acceptor fluorophores (Z-LYTE, Invitrogen Ltd., Paisley, UK).
The inhibitory activities of test compounds against the p38 MAPKα isoform (MAPK14: Invitrogen), are evaluated indirectly by determining the level of activation/phosphorylation of the down-stream molecule, MAPKAP-K2. The p38 MAPKα protein (80 ng/mL, 2.5 μL) is mixed with the test compound (2.5 μL of either 4 μg/mL, 0.4 μg/mL, 0.04 μg/mL or 0.004 μg/mL) for 2 hr at RT. […] The mixture is incubated for 1 hr at RT. Development reagent (protease, 5 μL) is added for 1 hr prior to detection in a fluorescence microplate reader (Varioskan® Flash, ThermoFisher Scientific).
In all cases, the site-specific protease cleaves non-phosphorylated peptide only and eliminates the FRET signal. Phosphorylation levels of each reaction are calculated using the ratio of coumarin emission (donor) over fluorescein emission (acceptor), for which high ratios indicate high phosphorylation and low ratios indicate low phosphorylation levels.

[3] = test system: Differentiated U937 cells; experiment: (l) Cell viability: MTT assay; assay type: cell-based, human; conditions: 1 μg/mL
Procedure, shortened: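 Differentiated U937 cells were exposed to compound at 1 or 10 μg/mL either 4 h in 5% FCS RPMI1640 or 24 h in 10% FCS RPMI1640, then given MTT for 1 h, DMSO-solubilised and read at 550 nm. Percent viability loss versus 0.5% DMSO vehicle; apparent gains appear negative.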

[4] = test system: β-catenin in d-U937 cells; experiment: (m) Accumulation of β catenin in d-U937 cells; assay type: cell-based, human
Experimental: U937 cells, a human monocytic cell line, are differentiated into macrophage-type cells by incubation with PMA; (100 ng/mL) for between 48 to 72 hr. The cells are then incubated with either final concentrations of test compound or vehicle for 18 hr. The induction of β-catenin by the test compounds is stopped by replacing the media with 4% formaldehyde solution. Endogenous peroxide activity is neutralised by incubating with quenching buffer (100 μL, 0.1% sodium azide, 1% H2O2 in PBS with 0.05% Tween-20) for 20 min. The cells are washed with washing buffer (200 μL; PBS containing 0.05% Tween-20) and incubated with blocking solution (200 μL; 5% milk in PBS) for 1 hr, re-washed with washing buffer (200 μL) and then incubated overnight with anti-β-catenin antibody solution (50 μL) in 1% BSA/PBS (BD, Oxford, UK).
After washing with washing buffer (3×200 μL; PBS containing 0.05% Tween-20), cells are incubated with an HRP-conjugated secondary antibody solution (100 μL) in 1% BSA/PBS (Dako, Cambridge, UK) and the resultant signal is determined colourimetrically (OD: 450 nm with a reference wavelength of 655 nm) using TMB substrate (50 μL; R&D Systems, Abingdon, UK). This reaction is stopped by addition of 1N H2SO4 solution (50 μL). Cells are then washed with washing buffer and 2% crystal violet solution (50 μL) is applied for 30 min. After washing with washing buffer (3×200 μL), 1% SDS (100 μL) is added to each well and the plates are shaken lightly for 1 hr prior to measuring the absorbance at 595 nm (Varioskan® Flash, Thermo-Fisher Scientific).
The measured OD450-655 readings are corrected for cell number by dividing the OD450-655 by the OD595 readings. […] A signal less than 0.15 (15%) of that observed for the standard control is designated as “-ve”.

[5] = test system: Balb/c mice; experiment: (A) LPS-induced neutrophil accumulation in mice; assay type: in vivo, mouse; conditions: 1.75 μg/mouse
Experimental: […] At T=0, mice are placed into an exposure chamber and exposed to LPS (7.0 mL, 0.5 mg/mL solution in PBS) for 30 min). After a further 8 hr the animals are anesthetized, their tracheas cannulated and BALF extracted by infusing and then withdrawing from their lungs 1.0 mL of PBS via the tracheal catheter. Total and differential white cell counts in the BALF samples are measured using a Neubaur haemocytometer. Cytospin smears of the BALF samples are prepared by centrifugation at 200 rpm for 5 min at RT and stained using a DiffQuik stain system (Dade Behring). Cells are counted using oil immersion microscopy. Data for neutrophil numbers in BAL are shown as mean±S.E.M. (standard error of the mean). The percentage inhibition of neutrophil accumulation is calculated for each treatment relative to vehicle treatment.

[6] = test system: mice; experiment: Mouse cigarette smoke model (macrophage and neutrophil accumulation in BALF); assay type: in vivo; conditions: cigarette smoke model, 1.75 μg/mouse (35 μL, bid, i.n.)
Excerpt: The result of treatment with compound Example (8) on macrophage and neutrophil accumulation in BALF in the mouse cigarette smoke model was investigated (Table 5).

T1 sequence (Q16539 whole entry, canonical isoform): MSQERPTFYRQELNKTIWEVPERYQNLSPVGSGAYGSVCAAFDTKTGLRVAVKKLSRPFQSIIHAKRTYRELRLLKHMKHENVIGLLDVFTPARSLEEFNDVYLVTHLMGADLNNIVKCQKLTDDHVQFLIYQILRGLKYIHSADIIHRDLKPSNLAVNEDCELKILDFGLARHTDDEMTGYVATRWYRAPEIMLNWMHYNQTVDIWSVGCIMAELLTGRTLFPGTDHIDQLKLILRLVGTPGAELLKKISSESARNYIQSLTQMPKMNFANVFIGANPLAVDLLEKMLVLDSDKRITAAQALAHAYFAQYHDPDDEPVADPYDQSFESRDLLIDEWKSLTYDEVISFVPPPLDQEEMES

Structure (SMILES) | IC50 [2] [nM] | % β-catenin induction ([4]; 1 μg/mL test compound) [%] | % β-catenin induction ([4]; 5 μg/mL test compound) [%] | also measured
COc1cc(Nc2cc(Oc3ccc(NC(=O)Nc4cc(C(C)(C)C)nn4-c4ccc(C)cc4)c4ccccc34)ccn2)cc(C(=O)NCCN2CCOCC2)c1 [Example 1, 3-((4-((4-(3-(3-(tert-Butyl)-1-(p-tolyl)-1H-pyrazol-5-yl)ureido)naphthalen-1-yl)oxy)pyridin-2-yl)amino)-5-methoxy-N-(2-morpholinoethyl)benzamide] | 50 | −7 | −6 | IC50 [1]: 40 nM; Cell viability at time point in d-U937 cells 4 h [3]: −ve (−ve and +ve indicate that the value is below and above respectively, the no significant effect threshold, defined as 30% inhibition at 1 μg/mL at the time point indicated.); Cell viability at time point in d-U937 cells 24 h [3]: −ve (−ve and +ve indicate that the value is below and above respectively, the no significant effect threshold, defined as 30% inhibition at 1 μg/mL at the time point indicated.)
C#Cc1cc(Nc2nccc(Oc3ccc(NC(=O)Nc4cc(C(C)(C)C)nn4-c4ccc(OC)nc4)c4ccccc34)n2)cc(C(=O)NCCN2CCOCC2)c1 [Example 73, 3-((4-((4-(3-(3-(tert-Butyl)-1-(6-methoxypyridin-3-yl)-1H-pyrazol-5-yl)ureido)naphthalen-1-yl)oxy)pyrimidin-2-yl)amino)-5-ethynyl-N-(2-morpholinoethyl)benzamide] | 47 | 17 | −7 | % β-catenin induction ([4]; 10 μg/mL test compound): 7%
C#Cc1cc(Nc2nccc(Oc3ccc(NC(=O)Nc4cc(C(C)(C)C)nn4-c4ccc(C)cc4)c4ccccc34)n2)cc(C(=O)NCCN2CCOCC2)c1 [Example 75, 3-((4-((4-(3-(3-(tert-Butyl)-1-(p-tolyl)-1H-pyrazol-5-yl)ureido)naphthalen-1-yl)oxy)pyrimidin-2-yl)amino)-5-ethynyl-N-(2-morpholinoethyl)benzamide] | 49 | −14 | −10 | 
C#Cc1cc(Nc2nccc(Oc3ccc(NC(=O)Nc4cc(C(C)(C)C(F)(F)F)nn4-c4ccc(C)cc4)c4ccccc34)n2)cc(C(=O)NCCN2CCOCC2)c1 [Example 76, 3-Ethynyl-N-(2-morpholinoethyl)-5-((4-((4-(3-(1-(p-tolyl)-3-(1,1,1-trifluoro-2-methylpropan-2-yl)-1H-pyrazol-5-yl)ureido)naphthalen-1-yl)oxy)pyrimidin-2-yl)amino)-benzamide] | 233 | −3 | −1 | 
C#Cc1cc(Nc2nccc(Oc3ccc(NC(=O)Nc4cc(C(C)(C)C)nn4-c4ccc(C)cc4)c4ccccc34)n2)cc(C(=O)N[C@@H](C)CN2CCOCC2)c1 [Example 81, (S)-3-((4-((4-(3-(3-(tert-Butyl)-1-(p-tolyl)-1H-pyrazol-5-yl)ureido)naphthalen-1-yl)oxy)pyrimidin-2-yl)amino)-5-ethynyl-N-(1-morpholinopropan-2-yl)benzamide] | 138 | 3 | −3 | 
C#Cc1cc(Nc2nccc(Oc3ccc(NC(=O)Nc4cc(C(C)(C)C)nn4-c4ccc(C)cc4)c4ccccc34)n2)cc(C(=O)N[C@H](C)CN2CCOCC2)c1 [Example 83, (R)-3-((4-((4-(3-(3-(tert-Butyl)-1-(p-tolyl)-1H-pyrazol-5-yl)ureido)naphthalen-1-yl)oxy)pyrimidin-2-yl)amino)-5-ethynyl-N-(1-morpholinopropan-2-yl)benzamide] | 261 | −3 | −6 | 
C#Cc1cc(Nc2nccc(Oc3ccc(NC(=O)Nc4cc(C(C)(C)C)nn4-c4ccc(OC)cc4)c4ccccc34)n2)cc(C(=O)N[C@@H](C)COC)c1 [Example 85, (S)-3-((4-((4-(3-(3-(tert-Butyl)-1-(4-methoxyphenyl)-1H-pyrazol-5-yl)ureido)-naphthalen-1-yl)oxy)pyrimidin-2-yl)amino)-5-ethynyl-N-(1-methoxypropan-2-yl)-benzamide] | 158 | 7 | 3 | % β-catenin induction ([4]; 10 μg/mL test compound): 6%
C=C(C)c1cc(NC(=O)Nc2ccc(Oc3ccnc(Nc4cc(OC)cc(C(=O)NCCN5CCOCC5)c4)n3)c3ccccc23)n(-c2ccc(OC)cc2)n1 [Example 86, 3-Methoxy-5-((4-((4-(3-(1-(4-methoxyphenyl)-3-(prop-1-en-2-yl)-1H-pyrazol-5-yl)ureido)naphthalen-1-yl)oxy)pyrimidin-2-yl)amino)-N-(2-morpholinoethyl)-benzamide] |  |  |  | IC50 [1]: 10 nM; Cell viability at time point in d-U937 cells 4 h [3]: −ve (−ve and +ve indicate that the value is below and above respectively, the no significant effect threshold, defined as 30% inhibition at 1 μg/mL at the time point indicated.); Cell viability at time point in d-U937 cells 24 h [3]: −ve (−ve and +ve indicate that the value is below and above respectively, the no significant effect threshold, defined as 30% inhibition at 1 μg/mL at the time point indicated.); β-catenin inductive effect relative to the effect produced by the Reference Compound at 1 μg/mL ([4]; test concentration of 10 μg/mL, found to be negative): less than 15%
C#Cc1cc(Nc2nccc(Oc3ccc(NC(=O)Nc4cc(C(C)C)nn4-c4ccc(C)cc4)c(Cl)c3Cl)n2)cc(C(=O)NCCN2CCOCC2)c1 [Example 87, 3-((4-(2,3-Dichloro-4-(3-(3-isopropyl-1-(p-tolyl)-1H-pyrazol-5-yl)ureido)-phenoxy)pyrimidin-2-yl)amino)-5-ethynyl-N-(2-morpholinoethyl)benzamide] | 408 |  |  | 
CCC(=O)O[C@]1(C(=O)SCF)[C@H](C)C[C@H]2[C@@H]3C[C@H](F)C4=CC(=O)C=C[C@]4(C)[C@@]3(F)[C@@H](O)C[C@@]21C [fluticasone propionate, reference compound] |  |  |  | inhibition of LPS-induced neutrophil accumulation [5]: > 80%; inhibition of neutrophil or macrophage accumulation into airways [6]: did not inhibit

Reference: patent US9701670B2, “Pyrazolyl-ureas as kinase inhibitors” (RESPIVERT LIMITED, priority 2013, dated 2017)
